# Results published in patent US20220118159A1, “ANTIOXIDANT-RELEASING VITREOUS SUBSTITUTES AND USES THEREOF” (Ohio State Innovation Foundation, priority 2019, published 2022).
# Entries after “also recorded” stand apart in the source; their conditions may differ. Like-named read-outs stand apart in the source and are kept apart here.
# What was measured:
# [1] = Vitamin C remaining (stability) study, absorbance at 265 nm
# Method: (§5) Chitosan (Sigma-Aldrich, low molecular weight, 1 mg/ml) was dissolved in acetic acid solution (1% w/w, 500 ml) for 60 min at 500 rpm. Sodium tripolyphosphate (1.75 mg/ml, 500 ml) was added dropwise into the chitosan solution to form nanoparticles over 2 hours. The nanoparticles were collected by centrifugation at 4000 rpm for 15 min at 21° C. The particles were washed with deionized water and again centrifuged. Vitamin C (10% w/w, 10 ml, pH 5.5) was added to the particles and equilibrated for 18 hours on an orbital shaker. Sodium alginate (FMC BioPolymer, Protanal PH, 1 mg/ml, 10 ml, pH 5.5) was added to the vitamin C and chitosan particle solution and sonicated for 30 min. Chitosan (Sigma-Aldrich, low molecular weight, 1 mg/ml in 1% w/w acetic acid solution, 10 ml) or gelatin (bloom 175, 1 mg/ml, 10 ml) was added to the vitamin c-chitosan-alginate particles and sonicated for 30 min. The particles were collected by centrifugation at 4000 rpm for 15 min at 21° C. and freeze dried. […] Concentration of vitamin C versus time was determined using methods as described elsewhere in the Examples.
# (§6) Either the particle solutions or the chemically-stabilized Vitamin C solutions were incubated in the hydrogels at 37° C.
# (§7) For each solution tested, a control group with no vitamin C and a test group with vitamin C (1% w/w) alone in DPBS were included. […] All solutions were kept at 37° C. throughout the release studies. The amount of viable vitamin C remaining in the solutions was measured using a Synergy HT multi-mode microplate reader (BioTek, Winooski, Vt.) at wavelength 265 nm and compared to the control groups to determine the amount of viable vitamin C left in the solutions. To measure the concentration of vitamin C, solutions with particles were centrifuged at 3220 rpm for 5 min and solution (500 uL) was removed and placed into a 96-well plate measured on days 0, 1, 2, 3, 4, 7, 8, 9, 10, 11, and 14. After two weeks, solutions with higher concentrations of vitamin C were measured every other day until vitamin C was undetectable. For the particle solutions, DPBS solutions (500 uL) was added back into the solution to maintain a constant volume.
# [2] = tested on: ARPE-19; test: CellTiter-Glo luminescent cell viability assay
# Method: (§1) Cell Viability and ROS Activity Assays. ARPE-19 and LEC were seeded in 96-well plates at 1×10^4 cells per well in DMEM/F-12 and DMEM, respectively, supplemented with 10% FCS and 1% Pen Strep for 24 h at 37° C. in 5% CO2 humidified atmosphere. The hydrogels were submerged in 70% ethanol for 1 hour to sterilize, rinsed with deionized water 3 times for 1 hour each to remove the residual ethanol, and mixed well with serum-free and phenol red-free DMEM at a hydrogel concentration of 10% w/v (J. Chang, et al., J Mater Chem B. 2015, 3, 1097-1105; Y. Tao, et al., Acta Biomater. 2013, 9, 5022-5030; M. Annaka, et al., Biomacromolecules. 2011, 12, 4011-4021; and S. Lamponi, et al., J. Biomater. Sci. Polym. Ed. 2012, 23, 555-575). The culture medium in each well was removed and medium (100 μL) with/without hydrogel and with/without vitamin C (2.2 mM) was added to each well and incubated for 24 hours. Hydrogen peroxide (10 200 μM final concentration) was added to half of the wells, and DPBS (10 μL) was added to the remaining wells as a control (A. Heckelen, et al., Acta Ophthalmol Scand. 2004, 82, 564-568; and H. S. Lee, et al., Invest. Ophthalmol. Vis. Sci. 2017, 58, 1196-1207). The well plates were incubated for 30 minutes. CellTiter-Glo luminescent cell viability assay was conducted according to the manufacturer's protocol. Briefly, the well plates were equilibrated to room temperature for 30 minutes. CellTiter-Glo Reagent (100 μL) was added to each well, and the contents were mixed for 10 minutes using an orbital shaker. The well plates were incubated at room temperature for 10 minutes before the luminescent signal was measured using the Synergy HT multi-mode microplate reader. ROS activity was detected using DCF. Briefly, DCF (100 20 μM final concentration) was added to each well, and the contents were incubated at room temperature for 30 minutes (Y. Ou, et al., Chem Biol Interact. 2009, 179, 103-109). The fluorescence signal was measured with excitation and emission wavelengths of 485 and 525 nm, respectively, using a TECAN M200 Plate Reader (Männedorf, Switzerland).
# (§2) Screening of Hydrogen Peroxide, Vitamin C, and Glutathione Concentrations Using a Cell Viability Assay: ARPE-19 and LEC were seeded in 96-well plates at 1×10^4 cells per well in DMEM/F-12 and DMEM, respectively, supplemented with 10% FCS and 1% Pen Strep for 24 h at 37° C. in 5% CO2 humidified atmosphere. The culture medium in each well was removed and various media with vitamin C (2000 μM, 1000 μM, 500 μM, 100 μM, and 0 μM) or glutathione (10000 μM, 4000 μM, 2000 μM, 1000 μM, 500 μM, and 0 μM) was added to each well (100 μL) and incubated for 24 hours. Hydrogen peroxide (600 μM, 400 μM, 200 μM, 100 μM, 50 μM, and 0 μM) and a special case of vitamin C (2000 μM) was added (100 μL) 30 minutes before performing the viability assays. CellTiter-Glo luminescent cell viability assay was conducted according to the manufacturer's protocol. Briefly, the well plates were equilibrated to room temperature for 30 minutes. CellTiter-Glo Reagent (100 μL) was added to each well, and the contents were mixed for 10 minutes using an orbital shaker.
# [3] = tested on: LEC; test: CellTiter-Glo luminescent cell viability assay
# Method: as §1, §2
# [4] = tested on: ARPE-19; test: ROS activity, DCF assay; format: cell-based, human
# Method: (§3) Cell Viability and ROS Activity Assays. […] The well plates were incubated for 30 minutes. […] ROS activity was detected using DCF. […] The fluorescence signal was measured with excitation and emission wavelengths of 485 and 525 nm, respectively, using a TECAN M200 Plate Reader (Männedorf, Switzerland).
# (§4) Antioxidant Activity of Vitamin C in Reducing Reactive Oxygen Species (ROS) Activity Using DCF Assay: The ROS activity induced by hydrogen peroxide (200 μM for 30 minutes) of ARPE-19 and LEC treated with vitamin C (0, 100, and 1000 μM for 30 minutes or 24 hours) was determined using dichlorofluorescein assay. Briefly, LEC and ARPE-19 cells were cultured as aforementioned.
# [5] = tested on: LEC; test: ROS activity, DCF assay; format: cell-based, human
# Method: as §3, §4
# [6] = 2 mM
# Method: as §5, §6, §7
# [7] = Sodium ascorbate degradation and release from polyacrylamide hydrogels; format: physicochemical; conditions: PBS, lag time about 36 hours after making
# Method: The 2 mM sodium ascorbate solutions in PBS, which was diluted 20× before measurement as previously described, show an exponential-like decay in concentration over time (note that the y-axis is plotted on a log scale). Additionally, its concentration at time 0 was 1.4 mM, not 2 mM as made, since there was a lag time between when the solutions were made and when the experiment started. This lag time (about 36 hours) was due to the delayed gelation time of polyacrylamide hydrogels. The polymer solutions with sodium ascorbate gelled within 18 hours. However, the polymer solutions without sodium ascorbate took twice as long to gel.
# The gelled polyacrylamide hydrogels (1 ml) with or without sodium ascorbate were submerged in 10 ml of PBS. […] The 1 ml aliquots were measured without dilution, since the sodium ascorbate concentrations were already within the linear region of the standard curve.
# The absorbance readings of the hydrogels without sodium ascorbate increase with time. Since there was no sodium ascorbate added to these hydrogels, the increase in absorbance could be due to the small pieces of polymer leached out from the hydrogel causing UV light interference. […] The absorbance readings of hydrogels without sodium ascorbate can be subtracted from the ones with sodium ascorbate to obtain the true absorbance reading due to the varying concentrations of sodium ascorbate.
# [8] = glutathione, all tested conditions up to 10000 μM, 24 hours
# [9] = vitamin C 100 μM for 24 hours, H2O2 200 μM
# [10] = vitamin C 100 μM, after 24 hours, not treated with H2O2
# [11] = vitamin C 100 and 1000 μM for 30 minutes
# [12] = Example 7: hydrogen peroxide 200 μM final, 30 minutes, vs non-treated
# [13] = H2O2 200 μM and 400 μM, 30 minutes
# [14] = hydrogen peroxide 600 μM, 30 minutes
# [15] = hydrogen peroxide at or below 100 μM, 30 minutes
# [16] = hydrogen peroxide 200 μM, 30 minutes, compared to control
compound,measurement,setting,value
"N[C@@H](CCC(=O)N[C@@H](CS)C(=O)NCC(=O)O)C(=O)O [Glutathione, glutathione]",maintenance of vitamin C concentrations,"[1]; particles, presence of glutathione (FIGS. 18-19)",improved maintenance of vitamin C concentrations
same,vitamin C remaining,"[1]; past 14 days, glutathione 4-10 mM (FIG. 25)",More than half
same,change of cell viability,[2]; glutathione concentration above 100 μM,increased
same,cell viability,[2]; [8],above 70%
same,change of cell viability,[3]; glutathione 4000 μM and 10000,decreased
same,cell viability,[3]; [8],above 70%
"O=C1O[C@H]([C@@H](O)CO)C(O)=C1O [Vitamin C, ascorbic acid]",reduction of ROS induced by hydrogen peroxide,[4]; [9],not effective
same,ROS activity,[4]; [10],returned to the same level as the control
same,ROS activity,[4]; vitamin C 1000 μM for 24 hours,did not return to the normal control level
same,ROS activity,[4]; [11],15-30%
same,reduction of ROS induced by hydrogen peroxide,[5]; [9],not effective
same,ROS activity,[5]; [10],returned to the same level as the control
same,ROS activity,[5]; vitamin C 1000 μM for 24 hours with H2O2,the same ROS activity as the no H2O2 no vitamin C control
same,ROS activity,[5]; [11],15-30%
same,vitamin C remaining,[6]; 72 h,10%
same,vitamin C remaining,[6]; 5 days,0%
O=C1O[C@H]([C@@H](O)CO)C([O-])=C1O.[Na+] [sodium ascorbate],concentration of 2 mM sodium ascorbate solution at time 0,[7],1400 µM
"OO [Hydrogen peroxide, hydrogen peroxide]",cell viability,[2]; [12],approximately the same or even higher
same,cell viability,[2]; [13],had no effect
same,cell viability,[2]; [14],significantly decreased cell viability
same,cell viability,[2]; [15],did not affect cell viability
same,cell viability,[3]; [12],statistically lower
same,cell viability,[3]; [13],significantly decreased the cell viability
same,cell viability,[3]; [14],significantly decreased cell viability
same,cell viability,[3]; [15],did not affect cell viability
same,ROS activity,[4]; [16],did not affect; also recorded: did not significantly respond
same,increase in ROS activity,[5]; hydrogen peroxide 200 μM,1.5 times
same,ROS activity,[5]; [16],increased
